Experimental data reported in the CheMixHub viscosity set.
Several values for one entry are separate records, joined by “and”; a condition that tells them apart may be missing. Identical values can stand only once.

Assay: xn = mol fraction of the nth substance listed

N[C@@H](CO)C(=O)O + O
Settings	viscosity
298 K, 101 kPa, x1 = 0.0004	0.8836 mPa·s
298 K, 101 kPa, x1 = 0.0007	0.8853 mPa·s
298 K, 101 kPa, x1 = 0.001	0.889 mPa·s and 0.8901 mPa·s
298.15 K, 101 kPa, x1 = 8.92e-05	0.9214 mPa·s
298.15 K, 101 kPa, x1 = 0.000181	0.9346 mPa·s
298.15 K, 101 kPa, x1 = 0.00045	0.9108 mPa·s
298.15 K, 101 kPa, x1 = 0.000898	0.9225 mPa·s
298.15 K, 101 kPa, x1 = 0.00135	0.9328 mPa·s
298.15 K, 101 kPa, x1 = 0.00178	0.9489 mPa·s
298.15 K, 101 kPa, x1 = 0.001798	0.942 mPa·s
298.15 K, 101 kPa, x1 = 0.002245	0.9508 mPa·s
298.15 K, 101 kPa, x1 = 0.002695	0.9596 mPa·s
298.15 K, 101 kPa, x1 = 0.003143	0.9678 mPa·s
298.15 K, 101 kPa, x1 = 0.00359	0.9758 mPa·s
298.15 K, 101 kPa, x1 = 0.003599	0.9614 mPa·s
298.15 K, 101 kPa, x1 = 0.005265	0.9714 mPa·s
298.15 K, 101 kPa, x1 = 0.007246	0.9945 mPa·s
298.15 K, 101 kPa, x1 = 0.008825	1.011 mPa·s
298.15 K, 101 kPa, x1 = 0.01096	1.024 mPa·s
298.15 K, 101 kPa, x1 = 0.01198	1.04 mPa·s
298.15 K, 101 kPa, x1 = 0.01387	1.059 mPa·s
298.15 K, 101.3 kPa, x1 = 0.0008915	0.901 mPa·s
298.15 K, 101.3 kPa, x1 = 0.001352	0.905 mPa·s
298.15 K, 101.3 kPa, x1 = 0.001784	0.909 mPa·s
298.15 K, 101.3 kPa, x1 = 0.002244	0.913 mPa·s
298.15 K, 101.3 kPa, x1 = 0.002683	0.917 mPa·s
303.15 K, 101 kPa, x1 = 0.00045	0.8151 mPa·s
303.15 K, 101 kPa, x1 = 0.000898	0.8252 mPa·s
303.15 K, 101 kPa, x1 = 0.00135	0.834 mPa·s
303.15 K, 101 kPa, x1 = 0.001798	0.8418 mPa·s
303.15 K, 101 kPa, x1 = 0.002245	0.8494 mPa·s
303.15 K, 101 kPa, x1 = 0.002695	0.8566 mPa·s
303.15 K, 101 kPa, x1 = 0.003143	0.8637 mPa·s
303.15 K, 101 kPa, x1 = 0.00359	0.8705 mPa·s
303.15 K, 101.3 kPa, x1 = 0.0008915	0.807 mPa·s
303.15 K, 101.3 kPa, x1 = 0.001352	0.811 mPa·s
303.15 K, 101.3 kPa, x1 = 0.001784	0.815 mPa·s
305.15 K, 101 kPa, x1 = 0.0003602	0.7851 mPa·s
305.15 K, 101 kPa, x1 = 0.0007201	0.7891 mPa·s
305.15 K, 101 kPa, x1 = 0.00108	0.7935 mPa·s
305.15 K, 101 kPa, x1 = 0.001439	0.7984 mPa·s
305.15 K, 101 kPa, x1 = 0.001798	0.8025 mPa·s
305.15 K, 101 kPa, x1 = 0.002157	0.8071 mPa·s
308.15 K, 101 kPa, x1 = 8.92e-05	0.7615 mPa·s
308.15 K, 101 kPa, x1 = 0.000181	0.7756 mPa·s
308.15 K, 101 kPa, x1 = 0.00045	0.7347 mPa·s
308.15 K, 101 kPa, x1 = 0.000898	0.7434 mPa·s
308.15 K, 101 kPa, x1 = 0.00135	0.751 mPa·s
308.15 K, 101 kPa, x1 = 0.00178	0.7901 mPa·s
308.15 K, 101 kPa, x1 = 0.001798	0.7578 mPa·s
308.15 K, 101 kPa, x1 = 0.002245	0.7641 mPa·s
308.15 K, 101 kPa, x1 = 0.002695	0.7704 mPa·s
308.15 K, 101 kPa, x1 = 0.003143	0.7764 mPa·s
308.15 K, 101 kPa, x1 = 0.00359	0.7822 mPa·s
308.15 K, 101 kPa, x1 = 0.003599	0.8056 mPa·s
308.15 K, 101 kPa, x1 = 0.005265	0.8198 mPa·s
308.15 K, 101 kPa, x1 = 0.007246	0.8356 mPa·s
308.15 K, 101 kPa, x1 = 0.008825	0.8542 mPa·s
308.15 K, 101 kPa, x1 = 0.01096	0.8741 mPa·s
308.15 K, 101 kPa, x1 = 0.01198	0.8898 mPa·s
308.15 K, 101 kPa, x1 = 0.01387	0.9046 mPa·s
310.15 K, 101 kPa, x1 = 0.0003602	0.7043 mPa·s
310.15 K, 101 kPa, x1 = 0.0007201	0.708 mPa·s
310.15 K, 101 kPa, x1 = 0.00108	0.7119 mPa·s
310.15 K, 101 kPa, x1 = 0.001439	0.7158 mPa·s
310.15 K, 101 kPa, x1 = 0.001798	0.7189 mPa·s
310.15 K, 101 kPa, x1 = 0.002157	0.7232 mPa·s
313.15 K, 101 kPa, x1 = 0.00045	0.6665 mPa·s
313.15 K, 101 kPa, x1 = 0.000898	0.6741 mPa·s
313.15 K, 101 kPa, x1 = 0.00135	0.6807 mPa·s
313.15 K, 101 kPa, x1 = 0.001798	0.6867 mPa·s
313.15 K, 101 kPa, x1 = 0.002245	0.6922 mPa·s
313.15 K, 101 kPa, x1 = 0.002695	0.6976 mPa·s
313.15 K, 101 kPa, x1 = 0.003143	0.7029 mPa·s
313.15 K, 101 kPa, x1 = 0.00359	0.7078 mPa·s
315.15 K, 101 kPa, x1 = 0.0003602	0.6498 mPa·s
315.15 K, 101 kPa, x1 = 0.0007201	0.6537 mPa·s
315.15 K, 101 kPa, x1 = 0.00108	0.6566 mPa·s
315.15 K, 101 kPa, x1 = 0.001439	0.66 mPa·s
315.15 K, 101 kPa, x1 = 0.001798	0.6629 mPa·s
315.15 K, 101 kPa, x1 = 0.002157	0.6666 mPa·s
318.15 K, 101 kPa, x1 = 8.92e-05	0.6512 mPa·s
318.15 K, 101 kPa, x1 = 0.000181	0.6602 mPa·s
318.15 K, 101 kPa, x1 = 0.00045	0.6097 mPa·s
318.15 K, 101 kPa, x1 = 0.000898	0.6164 mPa·s
318.15 K, 101 kPa, x1 = 0.00135	0.6222 mPa·s
318.15 K, 101 kPa, x1 = 0.00178	0.6723 mPa·s
318.15 K, 101 kPa, x1 = 0.001798	0.6275 mPa·s
318.15 K, 101 kPa, x1 = 0.002245	0.6324 mPa·s
318.15 K, 101 kPa, x1 = 0.002695	0.6371 mPa·s
318.15 K, 101 kPa, x1 = 0.003143	0.6417 mPa·s
318.15 K, 101 kPa, x1 = 0.00359	0.6461 mPa·s
318.15 K, 101 kPa, x1 = 0.003599	0.6845 mPa·s
318.15 K, 101 kPa, x1 = 0.005265	0.6953 mPa·s
318.15 K, 101 kPa, x1 = 0.007246	0.7012 mPa·s
318.15 K, 101 kPa, x1 = 0.008825	0.7125 mPa·s
318.15 K, 101 kPa, x1 = 0.01096	0.7242 mPa·s
318.15 K, 101 kPa, x1 = 0.01198	0.7345 mPa·s
318.15 K, 101 kPa, x1 = 0.01387	0.7466 mPa·s
